Data from patent US20250051347A1, “BIFUNCTIONAL CHIMERIC HETEROCYCLIC COMPOUND AND USE THEREOF AS ANDROGEN RECEPTOR DEGRADER” (Hinova Pharmaceuticals, Inc., priority 2021, published 2025).

biological target: T1, androgen receptor (AR) splicing variant AR-v7 (Homo sapiens, UniProt P10275); test: Degradation activity on androgen receptor splicing variant AR-v7 in 22RV1 cells (ELISA); assay type: cell-based; details: AR-v7 degradation in 22RV1 cells, 48 h, class symbols
T1 construct: The degradation activity of compounds on AR-v7 in 22RV1 cells; host or cells: 22RV1 cells
T1 sequence (P10275 1-644 isoform P10275-3): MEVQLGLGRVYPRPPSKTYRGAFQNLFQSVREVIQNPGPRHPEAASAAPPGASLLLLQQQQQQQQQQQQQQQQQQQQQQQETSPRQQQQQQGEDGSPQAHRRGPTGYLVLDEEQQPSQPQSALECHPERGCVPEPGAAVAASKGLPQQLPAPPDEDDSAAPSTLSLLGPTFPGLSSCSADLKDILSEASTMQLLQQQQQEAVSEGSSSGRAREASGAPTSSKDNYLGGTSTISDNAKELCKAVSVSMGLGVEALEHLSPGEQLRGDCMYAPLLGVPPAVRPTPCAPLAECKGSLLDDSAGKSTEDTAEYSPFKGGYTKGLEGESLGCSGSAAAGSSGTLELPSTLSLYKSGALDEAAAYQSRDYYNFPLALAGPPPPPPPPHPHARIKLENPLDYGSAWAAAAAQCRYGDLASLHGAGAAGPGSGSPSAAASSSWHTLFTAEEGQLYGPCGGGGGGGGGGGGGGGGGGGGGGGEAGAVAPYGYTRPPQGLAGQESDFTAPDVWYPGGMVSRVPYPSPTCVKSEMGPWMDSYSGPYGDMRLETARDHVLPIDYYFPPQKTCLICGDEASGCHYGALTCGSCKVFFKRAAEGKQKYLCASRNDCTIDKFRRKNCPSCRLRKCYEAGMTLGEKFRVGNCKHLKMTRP

`Cc1nc(-c2ccc(Oc3ccc(C(C)(C)c4ccc(OC5CC(Nc6ccc7c(c6)C(=O)N(C6CCC(=O)NC6=O)C7=O)C5)cc4)cc3)cn2)no1` (centres unmarked) [Example 543, 2-(2,6-dioxopiperidin-3-yl)-5-(1s,3s)-3-(4-(2-(4-(6-(5-methyl-1,2,4-oxadiazol-3-yl)pyridin-3-yl)oxy)phenyl)propan-2-yl)phenoxy)cyclobutyl)amino) isoindolin-1,3-dione] and `Cc1nc(-c2ccc(Oc3ccc(C(C)(C)c4ccc(O[C@H]5C[C@@H](Nc6ccc7c(c6)C(=O)N(C6CCC(=O)NC6=O)C7=O)C5)cc4)cc3)cn2)no1` (some centres unmarked) [Example 587] fall in the same range of DC50: 11 to 100 nM for the first, 11 to 100 nM for the second.

`CC(C)(c1ccc(OCc2nccc(N3CC4(COC4)C3)n2)cc1)c1ccc(O[C@H]2C[C@@H](Nc3ccc4c(c3)C(=O)N(C3CCC(=O)NC3=O)C4=O)C2)cc1` (some centres unmarked) [Example 545] and `CC(C)(c1ccc(Oc2cnc(N3CC4(COC4)C3)cn2)cc1)c1ccc(O[C@H]2C[C@H](Nc3ccc4c(c3)C(=O)N(C3CCC(=O)NC3=O)C4=O)C2)cc1` (some centres unmarked) [Example 573] fall in the same range of DC50: 11 to 100 nM for the first, 11 to 100 nM for the second.

`Cc1nc(-c2ccc(Oc3ccc(C(C)(C)c4ccc(O[C@H]5C[C@H](Nc6ccc7c(c6)C(=O)N(C6CCC(=O)NC6=O)C7=O)C5)cc4)cc3)nc2)no1` (some centres unmarked) [Example 546] and `Cc1nc(-c2cnc(Oc3ccc(C(C)(C)c4ccc(O[C@H]5C[C@H](Nc6ccc7c(c6)C(=O)N(C6CCC(=O)NC6=O)C7=O)C5)cc4)cc3)cn2)no1` (some centres unmarked) [Example 586] fall in the same range of DC50: 11 to 100 nM for the first, 11 to 100 nM for the second.

`COc1cnc(Oc2ccc(C(C)(C)c3ccc(O[C@H]4C[C@H](Nc5ccc6c(c5)C(=O)N(C5CCC(=O)NC5=O)C6=O)C4)cc3)cc2)cn1` (some centres unmarked) [Example 552, 2-(2,6-dioxopiperidin-3-yl)-5-(((1r,3r)-3-(4-(4-((5-methoxypyrazin-2-yl)oxy)phenyl)propan-2-yl)phenoxy)amino)isoindolin-1,3-dione] and `CC(C)(c1ccc(Oc2cnc(C#N)cn2)cc1)c1ccc(O[C@H]2C[C@H](Nc3ccc4c(c3)C(=O)N(C3CCC(=O)NC3=O)C4=O)C2)cc1` (some centres unmarked) [Example 594, 5-(4-(2-(4-((1r,3r)-3-((2-(2,6-dioxopiperidin-3-yl)-1,3-dioxoisoindolin-5-yl)amino)cyclobutyloxy)phenyl)propan-2-yl)phenoxy)pyrazin-2-nitrile] fall in the same range of DC50: 11 to 100 nM for the first, 11 to 100 nM for the second.

`CC(C)(c1ccc(OCCCNc2cccc3c2C(=O)N(C2CCC(=O)NC2=O)C3=O)cc1)c1ccc(OCc2ccnc(N3CCC3)n2)cc1` (centres unmarked) [Example 554, 4-((3-(4-(2-(4-((2-(azetidin-1-yl)pyrimidin-4-yl)methoxy)phenyl)propan-2-yl)phenoxy)propyl)amino)-2-(2,6-dioxopiperidin-3-yl)isoindolin-1,3-dione] and `CC(C)(c1ccc(OCCCNc2cccc3c2C(=O)N(C2CCC(=O)NC2=O)C3=O)cc1)c1ccc(OCc2ccnc(N3CCCCC3)n2)cc1` (centres unmarked) [Example 555] fall in the same range of DC50: 101 to 1000 nM for the first, 101 to 1000 nM for the second.

`CC(=O)c1nccc(COc2ccc(C(C)(C)c3ccc(N4CC5(CCN(c6ccc7c(c6)C(=O)N(C6CCC(=O)NC6=O)C7=O)CC5)C4)cc3)cc2)n1` (centres unmarked) [Example 559] and `CC(=O)c1nccc(COc2ccc(C(C)(C)c3ccc(N4CCC5(CCN(c6ccc7c(c6)C(=O)N(C6CCC(=O)NC6=O)C7=O)C5)C4)cc3)cc2)n1` (centres unmarked) [Example 560] fall in the same range of DC50: 1000 to 5000 nM for the first, 1000 to 5000 nM for the second.

First: CC(=O)c1nccc(COc2ccc(C(C)(C)c3ccc(OC4CC5(C4)CN(c4ccc6c(c4)C(=O)N(C4CCC(=O)NC4=O)C6=O)C5)cc3)cc2)n1 (centres unmarked) [Example 561]
Second: CC(=O)c1nccc(COc2ccc(C(C)(C)c3ccc(OC4CC5(CCN(c6ccc7c(c6)C(=O)N(C6CCC(=O)NC6=O)C7=O)C5)C4)cc3)cc2)n1 (centres unmarked) [Example 562]
The DC50 of the first is lower: 11 to 100 nM for the first, 1000 to 5000 nM for the second.

First: CC(C)(c1ccc(OCc2ccnc(N3CC4(COC4)C3)n2)cc1)c1ccc(OC2CCC(Nc3ccc4c(c3)C(=O)N(C3CCC(=O)NC3=O)C4=O)C2)cc1 (centres unmarked) [Example 563, 5-((3-(4-(2-(4-((2-(2-oxa-6-azaspiro[3.3]heptan-6-yl)pyrimidin-4-yl)methoxy)phenyl)propan-2-yl)phenoxy)cyclopentyl)amino)-2-(2,6-dioxopiperidin-3-yl)isoindolin-1,3-dione]
Second: CC(C)(c1ccc(OCc2ccnc(N3CC4(COC4)C3)n2)cc1)c1ccc(OC2CC3(CC(Nc4ccc5c(c4)C(=O)N(C4CCC(=O)NC4=O)C5=O)C3)C2)cc1 (centres unmarked) [Example 567, 5-((6-(4-(2-(4-((2-(2-oxa-6-azaspiro[3.3]heptan-6-yl)pyrimidin-4-yl)methoxy)phenyl)propan-2-yl)phenoxy)spiro[3.3]heptan-2-yl)amino)-2-(2,6-dioxopiperidin-3-yl)isoindolin-1,3-dione]
The DC50 of the first is lower: 11 to 100 nM for the first, 101 to 1000 nM for the second.

`CC(C)(c1ccc(OCc2ccnc(N3CC4(COC4)C3)n2)cc1)c1ccc(OC[C@H]2CCCN2Cc2ccc3c(c2)C(=O)N(C2CCC(=O)NC2=O)C3=O)cc1` (some centres unmarked) [Example 565] and `CC(C)(c1ccc(OCc2ccnc(N3CC4(COC4)C3)n2)cc1)c1ccc(OC[C@@H]2CCN2Cc2ccc3c(c2)C(=O)N(C2CCC(=O)NC2=O)C3=O)cc1` (some centres unmarked) [Example 566] fall in the same range of DC50: 1000 to 5000 nM for the first, 1000 to 5000 nM for the second.

First: CC(C)(c1ccc(OCC(=O)Nc2ccc3c(c2)C(=O)N(C2CCC(=O)NC2=O)C3=O)cc1)c1ccc(OCc2ccnc(N3CC4(COC4)C3)n2)cc1 (centres unmarked) [Example 568]
Second: CC(C)(c1ccc(OCc2ccnc(N3CC4(COC4)C3)n2)cc1)c1ccc(OC2CCCCC2Nc2ccc3c(c2)C(=O)N(C2CCC(=O)NC2=O)C3=O)cc1 (centres unmarked) [Example 569, 5-((2-(4-(2-(4-((2-(2-oxa-6-azaspiro[3.3]heptan-6-yl)pyrimidin-4-yl)methoxy)phenyl)propan-2-yl)phenoxy)cyclohexyl)amino)-2-(2,6-dioxopiperidin-3-yl)isoindolin-1,3-dione]
The DC50 of the first is lower: 11 to 100 nM for the first, 1000 to 5000 nM for the second.

First: CC(C)(c1ccc(OCc2ccnc(N3CC4(COC4)C3)n2)cc1)c1ccc(N2CC(CNc3ccc4c(c3)C(=O)N(C3CCC(=O)NC3=O)C4=O)C2)cc1 (centres unmarked) [Example 570]
Second: CC(C)(c1ccc(Oc2ncnc(N3CC(N4CCC4)C3)c2F)cc1)c1ccc(O[C@H]2C[C@@H](Nc3ccc4c(c3)C(=O)N(C3CCC(=O)NC3=O)C4=O)C2)cc1 (some centres unmarked) [Example 575]
The DC50 of the first is higher: 101 to 1000 nM for the first, 11 to 100 nM for the second.

`CCN1CC(Oc2ncnc(Oc3ccc(C(C)(C)c4ccc(O[C@H]5C[C@@H](Nc6ccc7c(c6)C(=O)N(C6CCC(=O)NC6=O)C7=O)C5)cc4)cc3)c2F)C1` (some centres unmarked) [Example 576] and `CC(C)(c1ccc(Oc2cc(-n3nccn3)ncn2)cc1)c1ccc(O[C@H]2C[C@@H](Nc3ccc4c(c3)C(=O)N(C3CCC(=O)NC3=O)C4=O)C2)cc1` (some centres unmarked) [Example 577] fall in the same range of DC50: 11 to 100 nM for the first, 11 to 100 nM for the second.

`Cc1nc(-c2cncc(Oc3ccc(C(C)(C)c4ccc(O[C@H]5C[C@H](Nc6ccc7c(c6)C(=O)N(C6CCC(=O)NC6=O)C7=O)C5)cc4)cc3)n2)no1` (some centres unmarked) [Example 585] and `Cc1nc(-c2ccc(Oc3ccc(C(C)(C)c4ccc(O[C@H]5C[C@@H](Nc6ccc7c(c6)C(=O)N(C6CCC(=O)NC6=O)C7=O)C5)cc4)cc3)cn2)no1` (some centres unmarked) [Example 597, 2-(2,6-dioxopiperidin-3-yl)-5-(((1s,3s)-3-(4-(2-(4-((6-(5-methyl-1,2,4-oxadiazol-3-yl)pyridin-3-yl)oxy)phenyl)propan-2-yl)phenoxy)cyclobutyl)amino)isoindolin-1,3-dione] fall in the same range of DC50: 11 to 100 nM for the first, 11 to 100 nM for the second.

`Cc1nnc(-c2cc(Oc3ccc(C(C)(C)c4ccc(O[C@H]5C[C@H](Nc6ccc7c(c6)C(=O)N(C6CCC(=O)NC6=O)C7=O)C5)cc4)cc3)ncn2)o1` (some centres unmarked) [Example 590] showed a DC50 of 11 to 100 nM.

same assay, conditions: AR-v7 degradation in 22RV1 cells, 48 h, numeric values

`CC(=O)c1nccc(COc2ccc(C(C)(C)c3ccc(OC4CCN(c5ccc6c(c5)C(=O)N(C5CCC(=O)NC5=O)C6=O)CC4)cc3)cc2)n1` (centres unmarked) [Example 557] was tested, and the DC50 was > 10000 nM.

system: 22RV1 cells; test: not given; details: Homo sapiens, 22Rv1, 144 h, read-out: 22RV1 IC50 (nM)

In the case of `CC(C)(c1ccc(OCc2ccnc(N3CC4(COC4)C3)n2)cc1)c1ccc(O[C@H]2C[C@H](Nc3ccc4c(c3)C(=O)N(C3CCC(=O)NC3=O)C4=O)C2)c(F)c1` (some centres unmarked) [Example 364, 5-(((1r,3r)-3-(4-(2-(4-((2-(2-oxa-6-azaspiro[3.3]heptane-6-yl)pyrimidin-4-yl)methoxy)phenyl)isopropan-2-yl)-2-fluorophenoxy)cyclobutyl)amino)-2-(2,6-dioxopiperidin-3-yl)isoindolin-1,3-dione], the IC50 was 12 nM.

same assay, conditions: Homo sapiens, 22Rv1, 144 h, read-out: 22RV1 IC50 (nM), 22RV1 cells, 6 days culture, CCK-8, OD 450 nm

`CC(C)(c1ccc(OCc2cc(N3CC4(COC4)C3)ncn2)cc1)c1ccc(OC2CC(Nc3ccc4c(c3)C(=O)N(C3CCC(=O)NC3=O)C4=O)C2)cc1` (centres unmarked) [Example 532] and `CC(C)(c1ccc(OCc2cncc(N3CC4(COC4)C3)n2)cc1)c1ccc(O[C@H]2C[C@@H](Nc3ccc4c(c3)C(=O)N(C3CCC(=O)NC3=O)C4=O)C2)cc1` (some centres unmarked) [Example 538] are within 1.5-fold of each other in IC50: 9 nM for the first, 12 nM for the second.

Molecule `CC(C)(c1ccc(OCc2nccc(N3CC4(COC4)C3)n2)cc1)c1ccc(O[C@H]2C[C@H](Nc3ccc4c(c3)C(=O)N(C3CCC(=O)NC3=O)C4=O)C2)cc1` (some centres unmarked) [Example 544] has an IC50 of 12 nM.
